Data on eleven compounds can be found in ChEMBL document CHEMBL1201862, “PubChem BioAssay data set” (2004).

Each structure is given as a SMILES string.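 All cell lines were grown in 96-well plates and treated with compound for 48 hours. The concentration for 50% growth inhibition is given as GI50.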 Calls of active or inactive are those of the source. No stated cut-off is given here; in the data, active = GI50 up to about 1.1 µM and inactive = higher.

Among the test systems are A498; A549; CAKI-1; HCC 2998; HCT-116; HOP-92; Hs-578T; MDA-N; Malme-3M; OVCAR-8; PC-3; RPMI-8226; SF-268; SK-MEL-28; SK-MEL-2; SK-MEL-5; SNB-75; UACC-62; TK-10; NCI-H522.
Experiment in all cases: DTP human tumour cell line panel, 48 h

What is called GI50 is the concentration at which growth is held to half of that of the control. For `N=c1oc2ccc(Cl)cc2cc1C(N)=O`, the GI50 in the assay on A498 is 32.7 µM (inactive); with A549 it was 42.6 µM (inactive); in the assay on CAKI-1, 34.1 µM (inactive); in the assay with HCC 2998 it was 25.7 µM (inactive); in the assay with HCT-116, 21.2 µM (inactive); in the assay with HOP-92, 36 µM (inactive). Further, the GI50 is 18.5 µM (inactive) with Hs-578T; 25.1 µM (inactive) in the assay on MDA-N; 17.6 µM (inactive) with Malme-3M; 33.2 µM (inactive) in the assay on OVCAR-8; 17.2 µM (inactive) in the assay on PC-3; 66.4 µM (inactive) in the assay with RPMI-8226. Also, the GI50 is 26.3 µM (inactive) with SF-268; 29 µM (inactive) in the assay on SK-MEL-28; 13.3 µM (inactive) with SK-MEL-2; 20.5 µM (inactive) in the assay with SK-MEL-5; 26.1 µM (inactive) in the assay with SNB-75; 16.8 µM (inactive) in the assay with UACC-62.

For the compound `Cc1c2ccccc2c(C)n2c1nc1ccccc12`, the GI50 is 5.42 µM (inactive) in the assay with A498; 4.37 µM (inactive) in the assay with A549; 5.43 µM (inactive) in the assay with HCC 2998; 4.65 µM (inactive) in the assay on HCT-116; 12.2 µM (inactive) in the assay with HOP-92; 20.2 µM (inactive) with Hs-578T. Further, the GI50 is 10.6 µM (inactive) with MDA-N; 8.69 µM (inactive) with Malme-3M; 4.97 µM (inactive) in the assay on OVCAR-8; 6.98 µM (inactive) in the assay on PC-3; 7.16 µM (inactive) in the assay on RPMI-8226; 9.89 µM (inactive) in the assay with SF-268. Further, the GI50 in the assay with SK-MEL-28 is 7.85 µM (inactive); with SK-MEL-5 it was 4.44 µM (inactive); with SNB-75, 12.5 µM (inactive); with TK-10 it was 13.4 µM (inactive); with UACC-62, 10.2 µM (inactive).

For `O=C1c2ccccc2C(=O)N1n1c(Cc2ccccc2)n[nH]c1=O`, the GI50 in the assay on A498, in the assay on A549, in the assay with CAKI-1, with HCC 2998, in the assay with HCT-116 and in the assay with HOP-92 was > 100 µM (inactive) throughout. Further, the GI50 in the assay on Hs-578T, in the assay on MDA-N, with Malme-3M, with OVCAR-8, in the assay with PC-3 and in the assay with SK-MEL-28 was > 100 µM (inactive) in each case. In addition, the GI50 with SK-MEL-2, in the assay with SK-MEL-5, in the assay with SNB-75, in the assay on TK-10 and in the assay on UACC-62 was > 100 µM (inactive) in each case.

`CC(=O)OCC(OC(C)=O)C(OC(C)=O)C(OC(C)=O)C(C=NN(C(C)=O)S(=O)(=O)c1ccc(/C=C2\NC(=O)N(C)C2=O)cc1)OC(C)=O` (centres undefined): the GI50 is 38 µM (inactive) in the assay on A498; 47 µM (inactive) in the assay on A549; 45.4 µM (inactive) in the assay on CAKI-1; 16.3 µM (inactive) in the assay with HCC 2998; 17.1 µM (inactive) in the assay with HCT-116; 25.3 µM (inactive) with Hs-578T. Also, the GI50 with MDA-N was 32.6 µM (inactive); with Malme-3M, 17.5 µM (inactive); with OVCAR-8 it was 27.2 µM (inactive); in the assay on PC-3 it was 27.9 µM (inactive); in the assay with RPMI-8226, 18.5 µM (inactive); with SF-268, 26.2 µM (inactive). Besides, the GI50 was 20.4 µM (inactive) with SK-MEL-2, 29.6 µM (inactive) in the assay with SK-MEL-5, 33.7 µM (inactive) with SNB-75 and 10.3 µM (inactive) in the assay with UACC-62.

For `O=c1[nH]c(=S)[nH]c(-c2ccccc2)c1Cc1c(O)ccc2ccccc12` [CAMBINOL], the GI50 with A498 was 21.3 µM (inactive); in the assay with A549, 32.2 µM (inactive); in the assay with CAKI-1, 25.5 µM (inactive); with HCT-116, 24.7 µM (inactive); with HOP-92, 26.1 µM (inactive); with Hs-578T, 43.9 µM (inactive). Also, the GI50 with MDA-N was 27.9 µM (inactive); in the assay on Malme-3M, 7.98 µM (inactive); in the assay with NCI-H522, 8.89 µM (inactive); in the assay on OVCAR-8 it was 38 µM (inactive); in the assay on PC-3, 37.2 µM (inactive); with RPMI-8226 it was 21.6 µM (inactive). Further, the GI50 in the assay with SF-268 was 24.7 µM (inactive); with SK-MEL-28, 39.2 µM (inactive); with SK-MEL-2, 20.4 µM (inactive); with SK-MEL-5, 21 µM (inactive); in the assay on SNB-75 it was 25.6 µM (inactive); in the assay on TK-10, 29.1 µM (inactive). In the assay with UACC-62, the GI50 was 21 µM (inactive).

Regarding `CCCCCCCCCCCCCCCCCCNc1nc(=O)n(C2CC(O)C(COP(=O)(O)O)O2)cc1F` (centres undefined), the GI50 in the assay with A498 is 6.27 µM (inactive); with A549, 17.4 µM (inactive); in the assay with CAKI-1, 15 µM (inactive); in the assay with HCC 2998 it was 15 µM (inactive); in the assay with HCT-116 it was 81.7 µM (inactive); with Hs-578T, > 100 µM (inactive). The GI50 in the assay on MDA-N was > 100 µM (inactive); in the assay with Malme-3M, > 100 µM (inactive); in the assay on NCI-H522, > 100 µM (inactive); in the assay on OVCAR-8, 27.4 µM (inactive); in the assay on PC-3, 26.1 µM (inactive); in the assay with RPMI-8226 it was > 63.2 µM (inactive). Besides, the GI50 in the assay on SF-268 is 49.4 µM (inactive); in the assay on SK-MEL-28 it was > 100 µM (inactive); in the assay on SK-MEL-2, > 100 µM (inactive); in the assay with SK-MEL-5, > 100 µM (inactive); in the assay on SNB-75 it was > 100 µM (inactive); in the assay on TK-10 it was > 100 µM (inactive). For the same compound, the GI50 in the assay with UACC-62 is > 78.2 µM (inactive).

Regarding `CCOC(=O)Nc1ccc(S(=O)(=O)Nc2ccc(Br)cc2)cc1`, the GI50 in the assay on A498 was 13.6 µM (inactive); in the assay with A549, 60.1 µM (inactive); in the assay with CAKI-1 it was 35.8 µM (inactive); with HCT-116, 39.7 µM (inactive); with HOP-92 it was 43.7 µM (inactive); in the assay on Hs-578T, 30.6 µM (inactive). Further, the GI50 was 37 µM (inactive) in the assay with MDA-N; 74 µM (inactive) with Malme-3M; 29 µM (inactive) with NCI-H522; 23.3 µM (inactive) with OVCAR-8; 41 µM (inactive) in the assay on PC-3; 25.1 µM (inactive) in the assay on RPMI-8226. The GI50 was 28.2 µM (inactive) in the assay on SF-268; 39.8 µM (inactive) in the assay on SK-MEL-28; 47.1 µM (inactive) in the assay on SK-MEL-2; 18.5 µM (inactive) with SK-MEL-5; 43.1 µM (inactive) in the assay with TK-10; 22.4 µM (inactive) in the assay with UACC-62.

For the compound `CC1(C=O)CCC23COC4(CCC5C6(C)CCC(OC7OCC(OC8OC(CO)C(O)C(OC9OC(CO)C(O)C(O)C9O)C8OC8OCC(O)C(O)C8O)C(O)C7OC7OC(CO)C(O)C(O)C7O)C(C)(C)C6CCC5(C)C4(C)CC2O)C3C1` (centres undefined), the GI50 in the assay on A498 was 0.552 µM (active); with A549 it was 1.63 µM (inactive); in the assay on CAKI-1 it was 1.12 µM (active); with HCC 2998, 1.01 µM (active); in the assay with HCT-116 it was 1.44 µM (inactive); with HOP-92, 0.381 µM (active). Further, the GI50 in the assay on Hs-578T is 1.5 µM (inactive); with MDA-N it was 0.557 µM (active); in the assay on NCI-H522, 1.68 µM (inactive); with OVCAR-8 it was 0.365 µM (active); with PC-3, 1.38 µM (inactive); with RPMI-8226 it was 1.71 µM (inactive). The GI50 was 1.14 µM (inactive) in the assay on SF-268; 1.57 µM (inactive) in the assay with SK-MEL-2; 1.61 µM (inactive) in the assay with SK-MEL-5; 1.26 µM (inactive) with SNB-75; 1.89 µM (inactive) with TK-10; 1.71 µM (inactive) with UACC-62.

Regarding `O=C(CSc1nnc(-c2ccccn2)s1)N/N=C/c1ccc([N+](=O)[O-])cc1`, the GI50 in the assay with A498 was 31 µM (inactive); in the assay on A549 it was 58.5 µM (inactive); in the assay on CAKI-1, > 100 µM (inactive); in the assay with HCT-116, 55.7 µM (inactive); in the assay with HOP-92, 16.3 µM (inactive); with Hs-578T, 32.1 µM (inactive). Also, the GI50 in the assay on MDA-N was > 100 µM (inactive); in the assay with Malme-3M it was > 100 µM (inactive); with NCI-H522, > 100 µM (inactive); in the assay on OVCAR-8, 41.8 µM (inactive); in the assay with PC-3, 65.8 µM (inactive); in the assay on SF-268, 22.1 µM (inactive). The GI50 in the assay with SK-MEL-28 is > 100 µM (inactive); with SK-MEL-2 it was 77.1 µM (inactive); with SK-MEL-5 it was > 100 µM (inactive); in the assay on SNB-75 it was 2.86 µM (inactive); in the assay with TK-10, 21.7 µM (inactive); in the assay on UACC-62, 76.4 µM (inactive).

For `CSc1ncc2c(n1)-c1ccccc1OC2N1CCOCC1` (centres undefined), the GI50 in the assay on A498 is 21.3 µM (inactive); in the assay with A549, 97.7 µM (inactive); with CAKI-1 it was 50.8 µM (inactive); in the assay with HCT-116, 69.7 µM (inactive); with HOP-92, 41.9 µM (inactive); in the assay on Hs-578T, 61.2 µM (inactive). Moreover, the GI50 in the assay on MDA-N was > 100 µM (inactive); with NCI-H522 it was 34.4 µM (inactive); in the assay on OVCAR-8, > 100 µM (inactive); in the assay on PC-3, 31.6 µM (inactive); in the assay on RPMI-8226, 49.9 µM (inactive); in the assay with SF-268, 87.9 µM (inactive). The GI50 in the assay on SK-MEL-2 is > 100 µM (inactive); in the assay on SK-MEL-5, 40.4 µM (inactive); in the assay with SNB-75, 44.5 µM (inactive); in the assay with TK-10 it was 43.3 µM (inactive); in the assay on UACC-62, 28.1 µM (inactive).

As to `COc1ccc(C2=C(N)c3ncccc3C2=O)cc1`, the GI50 in the assay with A498 was > 100 µM (inactive); in the assay on CAKI-1 it was > 100 µM (inactive); in the assay with HCC 2998, > 100 µM (inactive); with HCT-116 it was > 100 µM (inactive); with HOP-92, > 10 µM (inactive); in the assay on Hs-578T, 18.9 µM (inactive). The GI50 is > 100 µM (inactive) in the assay on MDA-N; 43.9 µM (inactive) in the assay on Malme-3M; > 100 µM (inactive) in the assay with OVCAR-8; > 100 µM (inactive) in the assay with PC-3; > 100 µM (inactive) with RPMI-8226; > 100 µM (inactive) in the assay on SF-268. Moreover, the GI50 in the assay with SK-MEL-28 is > 100 µM (inactive); in the assay with SK-MEL-2, > 100 µM (inactive); in the assay on SNB-75, > 100 µM (inactive); with TK-10 it was > 10 µM (inactive); in the assay with UACC-62, 60.8 µM (inactive).
